Assay results as given in a melting point compilation (Tetko et al.; mined from patent text by program, amines drawn as free bases though some values may be those of a salt).

Row | Compound | melting point
1 | CC(=O)NNC(=O)NC1c2ccccc2Oc2ccccc21 | 226 to 228 °C
2 | Cc1ccc(C(=O)c2cccc3c2CCC3(C)C(=O)O)cc1 (stereo not drawn) | 99 to 101 °C
3 | Cc1ccc(Cn2c(=O)[nH]c3cc(Cl)cc(Cl)c3c2=O)cc1 | 210 to 218 °C
4 | c1ccc(C(OC(c2ccccc2)(c2ccccc2)c2ccccc2)(c2ccccc2)c2ccccc2)cc1 | 89 to 91 °C
5 | CC(C)c1ccc(-c2nnc(-c3cccc(C(=O)O)c3)o2)cc1 | 202 to 204 °C
6 | CS(=O)(=O)c1ccc2c(C=C[N+](=O)[O-])c[nH]c2c1 | > 250 °C
7 | N#CC(=Cc1ccc(O)c(O)c1)C(=O)Nc1ccc(Cl)cc1 | 290 °C
8 | Cc1ccccc1Cc1n[nH]c2c1c(=O)n(-c1cccc(C(F)(F)F)c1)c1ncccc21 | 249 to 252 °C
9 | CSN=C1C(=O)N2C1SC(C)(C)C2C(=O)OCC(Cl)(Cl)Cl (stereo not drawn) | 129 to 130 °C
10 | CC(=O)N(c1cc([N+](=O)[O-])c(F)cc1Cl)S(=O)(=O)CCl | 183 to 187 °C
11 | Cc1cc(-c2cnn3c(C(F)(F)F)cc(-c4ccc(C(F)(F)F)c(OCC(F)(F)F)c4)nc23)ccn1 | 201 °C
12 | CC(C)(C)OC(=O)COc1coc(CN2CCCC2)cc1=O | 93 to 94 °C
13 | CC(C)(C(=O)O)n1c(=O)[nH]c2cc(F)c(F)cc2c1=O | 242 to 244 °C
14 | COC(=O)C1CCCn2c(=O)n(CC(=O)OCc3ccccc3)c(=O)n21 (stereo not drawn) | 103 to 106 °C
15 | O=C(c1cccs1)N(CCCCn1ccnc1)C1=Nc2cccc3cccc1c23 | 76 to 80 °C
16 | CCOC(=O)c1c(CCl)nc2ccc(Cl)cc2c1-c1ccc(Cl)cc1 | 140 to 141 °C
17 | CCOC(=O)/C=C/c1cc2cc(OCc3nc(-c4ccccc4)oc3C)ccc2o1 | 120 to 121 °C
18 | Cc1nc2cc(C(c3cccc(Cl)c3)n3ccnc3)ccc2[nH]c1=O (stereo not drawn) | 271 °C
19 | CS(=O)(=O)c1ccc(-c2cc(C(=O)CCCO[N+](=O)[O-])nn2-c2ccc(C(F)(F)F)cc2)cc1 | 152 to 154 °C

Row | Compound | melting point
20 | CCOC(=O)c1cc(CC)sc1Nc1ccc(Cl)cc1[N+](=O)[O-] | 75 to 76.5 °C
21 | Cc1ccc(NC(=O)c2cc(Cl)ccc2NCC2CCN(C3CCSCC3)CC2)nc1 | 173 to 176 °C
22 | CC(Cc1c[nH]c2ccccc12)(NC(=O)OC1C2CC3CC(C2)CC1C3)C(=O)NCC(NC(=O)CSc1ncc[nH]1)c1ccccc1 (stereo not drawn) | 112 to 122 °C
23 | NC(=O)c1ccc(OCCNCC(O)COc2ccc(-c3csnn3)cc2)cc1 (stereo not drawn) | 173 to 174 °C
24 | C[N+]1([O-])CC(CO)(c2ccccn2)C(=O)c2ccccc21 (stereo not drawn) | 198 to 200 °C
25 | Cn1cccc1-c1nsc2ccc(-n3c(=O)cc(C(F)(F)F)[nH]c3=O)cc12 | 125 to 130 °C
26 | CC(=O)Nc1cccc(Nc2ncnc3[nH]cc(C(=O)c4ccccc4C)c23)c1 | > 300 °C
27 | Nc1ccc(F)c(C(=O)Nc2ccccc2)c1 | 120 to 122 °C
28 | C#CCn1ccc(CO)c1C(F)(F)F | 63 °C
29 | CC(=O)NC[C@H]1CN(c2ccc(N3CCN(C(=O)CCC(=O)c4ccc(C(N)=O)cc4)CC3)c(F)c2)C(=O)O1 | > 250 °C
30 | CC(C)[C@H](C[C@H](O)[C@H](C)NC(=O)OC(C)(C)C)C(=O)NN | 55 to 62 °C
31 | O=C(O)c1cc(Br)c2cccnc2c1O | 244 to 246 °C
32 | CCOC(=O)c1cc2c(nc(C)n2C)c2c1C(=O)CC1(Cc3ccccc3C1)N2 | 205 to 206 °C
33 | CN(C=O)CC1(N2CCCCC2)CCCCC1 | 94 °C
34 | O=C(Cl)C(Oc1cccc(C(F)(F)F)c1)c1ccc(Cl)cc1 (stereo not drawn) | 96 to 98 °C
35 | CCOC(=O)c1oc2c(C(=O)NCCCN3CCN(c4cc(Cl)ccc4OC)CC3)cccc2c(=O)c1C | 107 to 115 °C
36 | C=CCOC(=O)/C=C/c1c[nH]c2ccc(OCc3ccccc3)cc12 | 73 to 77 °C
37 | Cc1cc(=O)[nH]c2cc(OCCCN3CCN(c4cccc(Cl)c4)CC3)ccc12 | 212 to 214 °C
38 | Cc1noc(-c2ncn3c2[C@@H]2CCCN2C(=O)c2c(Cl)cccc2-3)n1 | 230 to 231 °C
